Results as given in patent US20260041637A1, “VESICLES BASED ON GLUCOSE-DERIVED SURFACTANTS AND PHYTOSTEROLS” (NANOMOL TECHNOLOGIES, S.L., priority 2022, published 2026).

Key:
[1] = Entrapment efficiency (EE) by fluorescence spectroscopy (proteins); format: physicochemical
Description: iii) Entrapment efficiency (EE) by fluorescence spectroscopy: Entrapment efficiency (EE) of both proteins was determined by fluorescence spectroscopy using a Varian Cary Eclipse (Agilent Technolo-gies, Santa Clara, USA). In both cases, the separation of the non-integrated protein from that integrated in Vs was done by TFF (KrosFlo® Research 11i TFF diafiltration system (KR2i), with a mPES filter hollow column cut-off 300 KDa (C04-E100-05-N, Spectrum Labs, SL). Then, the permeate fraction was recovered and analyzed by fluorescence, exciting the proteins at 278 nm. The concentration was calculated using a calibration curve using the same media of the corresponding Vs system. The entrapment efficiency was then calculated using Equation 2, as described herein.

[2] = Entrapment efficiency (EE) by UV-Vis spectroscopy; format: physicochemical
Description: Entrapment efficiency (EE) of each active was determined by UV-Vis absorbance using an UV-Vis spectrophotometer (Thermo Scientific™ Evolution™ 201 UV-Visible Spectrophotometers, Thermo Scientific). For lipophilic actives (7-DHC, CBD, TCP, DiD and Dil) Vs membrane was dissociated to release the active by diluting the sample in ethanol at 80% (v/v) until a value of absorption below 1 and inside the calibration curve obtained. The concentration of each active was determined using a calibration curve, using the same media than the corresponding Vs system. The active was quantified before and after filtering process and both values were used to calculate the EE using Equation 1 (as described herein). As the lipophilic molecules are not soluble in aqueous media, it was considered that the filtered sample contained only the integrated active, since all the precipitated and non-integrated active should remain in the filter.
A different protocol was followed for hydrophilic actives (NCA, AG and MTX), in which, after the Vs filtration process, another step was applied to separate the non-integrated active. For NCA and AG, an ultracentrifugation step of the filtered sample was performed (6h, 4° C., 600000g) (Sorvall Discovery M150 Micro-Ultracentrifuge, Thermo Scientific). […]

[3] = Antioxidant capacity by 2,2-diphenyl-1-picrylhydrazyl (DPPH) assay; format: biochemical; details: molar ratio DPPH:TCP 1:0.3, 30 minutes in the dark, 517 nm; mean ± s.d. of two independent experiments
Description: DPPH assay is a well-known and established method to measure antioxidant capacity of a molecule. […] When DPPH is in its oxidated form presents a violet color that changes to yellow/white when is reduced. This color change can be followed using UV-Vis spectroscopy. The assay was carried out in ethanol always maintaining a molar ratio DPPH: TCP of 1:0.3. In order to have 3 mL of final volume, DPPH was diluted in ethanol to have a final concentration of 63.4 μM. Free TCP and TCP DELOS-NVs were diluted to have a final concentration of 19 µM of TCP. Each solution was then mixed and kept at room temperature for 30 minutes in the dark. The absorbance of the solution was measured at 517 nm using a Thermo Scientific™ Evolution™ 201/220 UV-Visible spectrophotometer (Thermo Scientific). The percentage of TCP antioxidant capacity was calculated using the Equation 3, where Abscontrol is the absorbance at 517 nm of DPPH in ethanol and Abssample is the absorbance at 517 nm of the sample prepared as described (free TCP or TCP DELOS-NVs with DPPH).
The antioxidant capacity of TCP was evaluated once it was integrated in the NVs to verify that the molecule was still active after the encapsulation. The antioxidant capacity was measured by the 2,2-diphenyl-1-picrylhydrazyl (DPPH) assay. DPPH is a stable free radical that can be reduced in the presence of hydrogen-donating antioxidants such as TCP. […]

b-FGF: basic fibroblast growth factor, small protein, encapsulated active
EE [%] ([1]; protein (b-FGF) in negatively charged Sit:LGC (1:1) Vs): > 99%

CN(Cc1cnc2nc(N)nc(N)c2n1)c1ccc(C(=O)N[C@@H](CCC(=O)O)C(=O)O)cc1 [MTX, Methotrexate]
EE [%] ([2]; active-loaded Sit:LGL-p:DC-Chol (0.8:1:0.2) Vs): 88%

HGH: Human growth hormone, small protein, encapsulated active
EE [%] ([1]; protein (HGH) in Sit:LGL-p:DC-Chol (0.8:1:0.2) Vs): over 99%

Cc1c(C)c2c(c(C)c1O)CCC(C)(CCCC(C)CCCC(C)CCCC(C)C)O2 (racemic) [Free TCP, DL-alpha-Tocopherol]
Antioxidant capacity (%) [3]: 60 ± 9%

C=C(C)[C@@H]1CCC(C)=C[C@H]1c1c(O)cc(CCCCC)cc1O [CBD, cannabidiol]
EE [%] ([2]; active-loaded Sit:LGC (1:1) and Sit:LGL:LGC (1:0.8:0.2) Vs): 22-33%
